The values that follow come from ChEMBL document CHEMBL1147295, “Plant antimutagens, 6. Intricatin and intricatinol, new antimutagenic homoisoflavonoids from Hoffmanosseggia intricata” (J Nat Prod, 1989).

The subject of data set [1] is Salmonella typhimurium. Put plainly: Antimutagenic activity in Salmonella Typhimurium T-98 assessed as inhibition of 2-aminoanthracene-induced mutation at 150 ug/plate. In kind it is functional, Salmonella enterica subsp. enterica serovar Typhimurium.
Data set [2] deals with Salmonella typhimurium. Put plainly: Antimutagenic activity in Salmonella Typhimurium T-98 assessed as inhibition of 2-aminoanthracene-induced mutation at 300 ug/plate. Type of data set: functional, Salmonella enterica subsp. enterica serovar Typhimurium.
The subject of data set [3] is Salmonella typhimurium. Put plainly: Antimutagenic activity in Salmonella Typhimurium T-98 assessed as inhibition of 2-aminoanthracene-induced mutation at 75 ug/plate. In kind it is functional, Salmonella enterica subsp. enterica serovar Typhimurium.
In data set [4] the test system is Salmonella typhimurium. Put plainly: Antimutagenic activity in Salmonella Typhimurium T-98 assessed as inhibition of 2-aminoanthracene-induced mutation at 37.5 ug/plate. Type of data set: functional, Salmonella enterica subsp. enterica serovar Typhimurium.
Data set [5] has as its system Salmonella typhimurium. Put plainly: Antimutagenic activity in Salmonella Typhimurium T-98 assessed as inhibition of acetylaminofluorene-induced mutation at 300 ug/plate. Type of data set: functional, Salmonella enterica subsp. enterica serovar Typhimurium.
The subject of data set [6] is Salmonella typhimurium. Put plainly: Antimutagenic activity in Salmonella Typhimurium T-98 assessed as inhibition of acetylaminofluorene-induced mutation at 150 ug/plate. In kind it is functional, Salmonella enterica subsp. enterica serovar Typhimurium.
The test system of data set [7] is Salmonella typhimurium. Put plainly: Antimutagenic activity in Salmonella Typhimurium T-98 assessed as inhibition of acetylaminofluorene-induced mutation at 75 ug/plate. Type of data set: functional, Salmonella enterica subsp. enterica serovar Typhimurium.
Data set [8] relates to Salmonella typhimurium. Put plainly: Antimutagenic activity in Salmonella Typhimurium T-98 assessed as inhibition of acetylaminofluorene-induced mutation at 37.5 ug/plate. In kind it is functional, Salmonella enterica subsp. enterica serovar Typhimurium.
In data set [9] the test system is Salmonella typhimurium. Put plainly: Antimutagenic activity in Salmonella Typhimurium T-100 assessed as inhibition of ethyl methanesulfonate-induced mutation at 300 ug/plate. Type of data set: functional, Salmonella enterica subsp. enterica serovar Typhimurium.
The subject of data set [10] is Salmonella typhimurium. Put plainly: Antimutagenic activity in Salmonella Typhimurium T-100 assessed as inhibition of ethyl methanesulfonate-induced mutation at 150 ug/plate. Type of data set: functional, Salmonella enterica subsp. enterica serovar Typhimurium.
In data set [11] the test system is Salmonella typhimurium. Put plainly: Antimutagenic activity in Salmonella Typhimurium T-100 assessed as inhibition of ethyl methanesulfonate-induced mutation at 75 ug/plate. Type of data set: functional, Salmonella enterica subsp. enterica serovar Typhimurium.
The subject of data set [12] is Salmonella typhimurium. Put plainly: Antimutagenic activity in Salmonella Typhimurium T-100 assessed as inhibition of ethyl methanesulfonate-induced mutation at 37.5 ug/plate. In kind it is functional, Salmonella enterica subsp. enterica serovar Typhimurium.
In data set [13] the test system is Salmonella typhimurium. Put plainly: Toxicity to Salmonella Typhimurium at 0.3 mg/plate. Type of data set: organism-based, Salmonella enterica subsp. enterica serovar Typhimurium. The following applies: in vivo.
In data set [14] the test system is Salmonella typhimurium. Put plainly: Toxicity to Salmonella Typhimurium at 0.6 mg/plate. Type of data set: organism-based, Salmonella enterica subsp. enterica serovar Typhimurium. Conditions: in vivo.

With `COc1ccc(/C=C2\COc3c(ccc(O)c3O)C2=O)cc1` [INTRICATINOL], the “inhibition (INH)” value is given as 57% with Salmonella typhimurium [1]; 87% in the data set with Salmonella typhimurium [2]; 36% in the data set on Salmonella typhimurium [3]; 8% in the data set on Salmonella typhimurium [4]; 70% in the data set with Salmonella typhimurium [5]; 54% with Salmonella typhimurium [6]. Further, the “inhibition (INH)” value in the data set with Salmonella typhimurium [7] came out at 48%; in the data set with Salmonella typhimurium [8] it was 26%; in the data set on Salmonella typhimurium [9] it was 74%; in the data set with Salmonella typhimurium [10], 82%; with Salmonella typhimurium [11], 74%; in the data set with Salmonella typhimurium [12] it was 30%. The Activity result with Salmonella typhimurium [13] and with Salmonella typhimurium [14] was “Non-toxic” in each case.

Take `COc1ccc(/C=C2\COc3c(ccc(OC)c3O)C2=O)cc1` [INTRICATIN]: the “inhibition (INH)” value in the data set with Salmonella typhimurium [1] came out at 84%; in the data set on Salmonella typhimurium [2] it was 62%; in the data set with Salmonella typhimurium [3] it was 92%; in the data set with Salmonella typhimurium [4] it was 70%; in the data set with Salmonella typhimurium [5], 7%; in the data set with Salmonella typhimurium [6], 0%. In addition, the “inhibition (INH)” value in the data set with Salmonella typhimurium [7] is 0%; in the data set on Salmonella typhimurium [8] it was 8%; in the data set with Salmonella typhimurium [9] it was 45%; with Salmonella typhimurium [10] it was 27%; in the data set on Salmonella typhimurium [11], 4%; in the data set with Salmonella typhimurium [12], 9%. Besides, the Activity result in the data set with Salmonella typhimurium [13] and in the data set on Salmonella typhimurium [14] was “Non-toxic” each time.
